What was measured:
Chinese cabbage plants = conditions: 2 mg/L in Hoagland nutrient solution, mercuric chloride and glycerol of different concentrations, 48 h
[1] = tested on: BraPIP2;1 overexpression Arabidopsis thaliana; test: Main root length of BraPIP2;1 transgenic Arabidopsis thaliana under thiamethoxam; type: in vivo; conditions: 1/2MS media with 10 and 50 mg/L thiamethoxam, 20 days
Excerpt: (§1) The BraPIP2;1 gene cloned in Example 1 was constructed into the plant binary overexpression vector pCAMBIA2301 (purchased from Clotech). By the Agrobacterium tumefaciens-mediated method (Valvekens, D., van Montagu, M., and Lijsebettens, M. V. (1988). Agrobacterium tumefaciens-mediated transformation of Arabidopsis thaliana root explants by using kanamycin selection. Proc. Natl. Acad. Sci. USA 85, 5536-5540.), the inflorescence of wild-type Arabidopsis thaliana Col-0 (purchased from ATCC, USA) was infected with the constructed overexpression vector. Through screening (resistance pure line seedlings were screened on a 1/2MS plate containing 50 μg/mL kanamycin), BraPIP2;1 overexpression Arabidopsis thaliana pure line materials BraPIP2;1#3 and BraPIP2;1#5 were identified and obtained.
The pure line seeds of the BraPIP2;1#3 and BraPIP2;1#5 obtained in the previous transgenic experiment and a wild-type Col-0 material (WT) were germinated on a 1/2MS medium respectively, and then transferred to 1/2MS media (Qingdao Hopebio Co., Ltd., Item No. HB8469-12, PH=5.6) containing 10 and 50 mg/L thiamethoxam respectively. After 20 days, the growth of the seedlings was observed and the main root length was measured.

[2] = tested on: Saccharomyces cerevisiae INVSc1 (pYES2-BraPIP2;1); test: Growth of recombinant yeast strains under thiamethoxam stress; type: cell-based; conditions: thiamethoxam 10-1600 mg/L, stress at 30° C. for 72 h
Excerpt: (§2) The BraPIP2;1 gene cloned in Example 1 was constructed into the Saccharomyces cerevisiae overexpression vector pYES2 (purchased from Clotech) referring to (He Lin, Jiang Lili, Wang Yucheng, Analysis of the stress tolerance of Tamarix thioredoxin peroxidase (ThPrx1) gene transformed into yeast, Journal of Northeast Forestry University, 2011, Vol. 39. No. 4, 101-104), and the constructed recombinant plasmid was named pYES2-BraPIP2;1. The pYES2-BraPIP2;1 and an empty vector pYES2 were transformed into Saccharomyces cerevisiae INVSc1 by lithium acetate precipitation. The recombinant yeasts were named INVSc1 (pYES2-BraPIP2;1) and INVSc1 (pYES2), respectively.
(§3) Induction of recombinant strains: Single colonies of the control yeast INvsc1 (pYES2) and the recombinant yeast INvsc1 (pYES2-BraPIP2;1) were picked, inoculated in an SC-U liquid medium (with glucose of a final concentration of 2%) respectively, and incubated at 30° C. for 24 h on a shaker. The OD600 value is measured, and the amount of bacterial solution required is calculated such that the OD600 of bacteria in 10 ml of induction medium (SC-U+2% galactose) is 0.4. Induce expression was carried out at 30° C. for 24 h. The OD600 value was measured again, and the amount of bacterial solution required was calculated. […]

[3] = tested on: Saccharomyces cerevisiae INVSc1 (pYES2-BraPIP2;1); test: Thiamethoxam content of recombinant yeast strain; type: cell-based; conditions: 30° C., 6 h
Excerpt: as §2, §3

[4] = tested on: Saccharomyces cerevisiae INVSc1 (pYES2); test: Thiamethoxam content of control yeast strain; type: cell-based; conditions: 30° C., 6 h
Excerpt: as §2, §3

BraPIP2;1 = test: Response of BraPIP2;1 gene expression to thiamethoxam (quantitative RT-PCR); type: in vivo, Chinese cabbage; conditions: 10 mg/L thiamethoxam, 6 hours and 24 hours, p<0.001
Protocol: Seedlings of Chinese cabbage with the same growth condition were put in a Hoagland's nutrient solution containing 10 mg/L thiamethoxam (the Hoagland's nutrient solution was purchased from Beijing Coolaber Technology Co., Ltd.), and treated in the Hoagland's nutrient solution for 6 and 24 hours (treatment group).
At the same time, a Hoagland's nutrient solution without thiamethoxam was used as the control group.
Treated root and aboveground tissue RNA of two groups was extracted respectively, the 1st strand cDNA was obtained by reverse transcription as a template, specific expression primers were designed based on the cDNA sequence of BraPIP2;1, the Chinese cabbage Tublin was used as an internal reference, and the expression of the gene transcription level was detected by quantitative RT-PCR.
The quantification instrument is 7500 Real Time PCR System (Applied Biosystem), and a qPCRT system was configured according to the instructions of a kit 2×TSINGKE Master qPCR Mix (Tsingke Biotechnology Co., Ltd.). The PCR program is: pre-denaturation at 95° C. for 10 min, at 95° C. for 15s, and at 60° C. for 20 s, for 40 cycles.

[5] = tested on: BraPIP2;1 overexpression Arabidopsis thaliana; test: Thiamethoxam content of BraPIP2;1 transgenic Arabidopsis thaliana plants; type: in vivo; conditions: soil containing 10 mg/L thiamethoxam, 20 days
Excerpt: as §1
In addition, germinated seedlings of the same size were transplanted into soil containing 10 mg/L thiamethoxam, and after 20 days of culture, the root and aboveground samples of the transgenic Arabidopsis thaliana and the control were harvested respectively, washed with deionized water, and weighed.

Row | Structure (SMILES) | content of the compound in the plants after water channel inhibitors were added (Chinese cabbage plants) | main root length of the transgenic strain versus wild type [1] | growth of transgenic strain (pYES2-BraPIP2;1) versus wild strain (pYES2) with thiamethoxam [2] | thiamethoxam content of the recombinant strain ([3]; 10 mg/L thiamethoxam) | thiamethoxam content of the recombinant strain ([3]; 100 mg/L thiamethoxam) | thiamethoxam content of the control strain ([4]; 10 mg/L thiamethoxam) | thiamethoxam content of the control strain ([4]; 100 mg/L thiamethoxam) | expression abundance of BraPIP2;1 in the roots and aboveground parts compared with the control (BraPIP2;1) | thiamethoxam content of the roots and aboveground parts of the transgenic plant versus wild plant [5]
1 | CN1CCCC1c1cccnc1 (stereo not drawn) [nicotine] | did not change significantly | – | – | – | – | – | – | – | –
2 | CN1COCN(Cc2cnc(Cl)s2)/C1=N\[N+](=O)[O-] [thiamethoxam] | – | shorter than that of the wild type | grows significantly weaker than the wild strain | 0.0071 ng/OD | 0.028 ng/OD | 0.0038 ng/OD | 0.011 ng/OD | significantly increased | higher than that of the wild plant

From patent US11629359B2, “Plasma membrane intrinsic aquaporin for absorbing and transporting neonicotinoid insecticides, and coding gene and use therefor” (JIANGSU ACADEMY OF ARGRICULTURAL SCIENCES, priority 2020, dated 2023)
